Results on 4 molecules are retold here after US6180767A, “Peptide nucleic acid conjugates” (Thomas Jefferson University, priority 1997, dated 2001).

Where no end group is shown, it is not given here.

The target of one series is IGF1-R (Homo sapiens, UniProt P08069). The conditions noted are these: Pietrzkowski et al., Cancer Res. 52, 6447-6451, 1992; cited from earlier work.
Series [1] relates to tumor cell lines dependent on IGFR1. The conditions noted are these: Pietrzkowski et al., Cancer Res. 52, 6447-6451, 1992; cited from earlier work.
Series [2] deals with P6 cells (murine Balb/c3T3 cells transfected with human IGF1R gene). Kind of series: Cellular uptake of fluoresceinated compounds, confocal fluorescence microscopy. The settings on record: 1 μM, 4 hours at 37° C., serum-free DMEM. It counts as cell-based. On the procedure: P6 cells, which are murine Balb/c3T3 cells transfected with human insulin-like growth factor receptor (IGF1R) gene, overexpress IGF1R. The cells were plated on LAB TEK 8 well tissue culture "CHAMBER SLIDES" from Nunc, Inc., Naperville, Ill. in 10% FBS/DMEM at a concentration of 20,000 cells/chamber. The cells were allowed to attach and grow for 24 hours in a humidified cell incubator with 5% CO2 at 37° C. The attached cells were then washed with serum-free DMEM and PBS. The cells were incubated for 4 hours at 37° C. with 1 μM of the fluoresceinated PNA-peptide (H-Gly-SEQ ID NO:5/SEQ ID NO: 1) or fluoresceinyl-PNA (H-Gly-SEQ ID NO:5-CONH2) in serum-free DMEM. Human Jurkat cells, which have very low copies of IGF1R (Lal et al., Leukemia Res. 17, 31-35, 1983) were used as a negative control. The Jurkat cells were grown in 10% FBS/RPMI. The Jurkat cells were treated in the same manner as the P6 cells, except that necessary modifications were made in handling the cells as they grow in suspension. […]
The fixed slides were analyzed under laser confocal fluorescence and phase contrast microscopy to observe the cellular uptake of the fluorescent oligomers. […] This is an advantage over conventional fluorescence microscopy, which cannot differentiate between signals inside and outside of the cells.

For another series, the system named is Jurkat cells. The series is described as follows: Cellular uptake of [14C]PNA derivatives. The settings on record: Jurkat cells (virtually no IGF1R), 1 μM 14C-labeled derivatives, FIG. 8. It counts as cell-based, Human. As to the method:
(§1) Uptake studies with radiolabeled PNA derivatives were carried out. P6 or Jurkat cells above were plated in 12.5 cm^2 flasks and grown for two days to 50-80% confluence, on the order of 10^6 cells per flask. The medium was then removed and replaced with fresh medium containing 1 μM of the various [^14 C]PNA derivatives, pre-warmed to 37° C.; background cells received medium with no [^14 C]PNA derivatives. After incubation for various times, attached cells were washed directly in the flasks using four washes--once with fresh medium, once with PBS, once with high salt/low pH buffer, and once with PBS. […]
(§2) After the final wash, the cells were lysed in 1 ml of 1% SDS in H2 O, and the samples were processed for total protein measurement and liquid scintillation counting. 50 μl of the lysate was allocated for total protein measurement, and ^14 C activity in the remaining lysate was measured by liquid scintillation counting, from which background counts were subtracted. […]
(§3) Control samples of varying confluence were trypsinized following the last wash, resuspended in PBS for cell counting, and then lysed to obtain total protein values. […] The curve was used to estimate cell counts from the total protein measurements of treated cells, and radioactivity counts were used to calculate pmoles of oligonucleotide using the specific activity of each labeled oligonucleotide. […]

The subject of a further series is Balb/c3T3 cells. Kind of series: Cellular uptake of [14C]PNA derivatives. It counts as cell-based, murine. The conditions noted are these: Balb/c3T3 cells (low levels of IGF1R), 14C-labeled derivatives, FIG. 7.
Series [3] can be described thus: Serum stability of the PNA-peptide conjugate. It counts as in vitro ADME. The conditions noted are these: 10% fetal bovine serum/PBS, 12 hours and 24 hours, reverse phase HPLC. On the procedure:
The title conjugate was incubated in 10% fetal bovine serum/PBS for 12 hours and 24 hours. After the incubation, one volume of acetonitrile was added to precipitated protein, which was pelleted by centrifugation. Free conjugate in the supernatant was dried under vacuo. It was then analyzed by reverse phase HPLC as described above.

Another series concerns P6 cells. Kind of series: Cellular uptake of [14C]PNA derivatives. It counts as cell-based, murine. The settings on record: 1 μM 14C-labeled derivatives, FIG. 6. On the procedure: as §1, §2, §3

Chain of IGF1-R (P08069 31-736 limits assumed): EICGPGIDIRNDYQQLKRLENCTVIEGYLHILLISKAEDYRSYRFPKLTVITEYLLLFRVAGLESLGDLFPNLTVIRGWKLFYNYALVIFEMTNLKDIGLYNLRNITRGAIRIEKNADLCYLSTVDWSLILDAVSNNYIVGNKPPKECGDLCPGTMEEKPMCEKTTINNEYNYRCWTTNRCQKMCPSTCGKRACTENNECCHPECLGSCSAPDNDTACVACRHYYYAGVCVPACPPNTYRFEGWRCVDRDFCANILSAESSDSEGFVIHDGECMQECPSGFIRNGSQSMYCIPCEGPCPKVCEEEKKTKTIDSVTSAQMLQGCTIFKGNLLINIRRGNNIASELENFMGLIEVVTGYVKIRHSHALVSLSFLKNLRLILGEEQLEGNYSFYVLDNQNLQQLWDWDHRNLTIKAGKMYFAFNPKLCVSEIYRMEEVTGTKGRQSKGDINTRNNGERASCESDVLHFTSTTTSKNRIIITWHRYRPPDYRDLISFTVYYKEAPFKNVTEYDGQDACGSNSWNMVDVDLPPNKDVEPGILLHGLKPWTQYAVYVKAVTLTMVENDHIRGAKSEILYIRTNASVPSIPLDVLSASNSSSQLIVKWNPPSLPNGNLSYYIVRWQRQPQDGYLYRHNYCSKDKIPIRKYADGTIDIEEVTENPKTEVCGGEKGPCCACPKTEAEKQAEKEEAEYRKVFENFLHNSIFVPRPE
Chain of IGF1-R (P08069 741-1367 partner limits assumed): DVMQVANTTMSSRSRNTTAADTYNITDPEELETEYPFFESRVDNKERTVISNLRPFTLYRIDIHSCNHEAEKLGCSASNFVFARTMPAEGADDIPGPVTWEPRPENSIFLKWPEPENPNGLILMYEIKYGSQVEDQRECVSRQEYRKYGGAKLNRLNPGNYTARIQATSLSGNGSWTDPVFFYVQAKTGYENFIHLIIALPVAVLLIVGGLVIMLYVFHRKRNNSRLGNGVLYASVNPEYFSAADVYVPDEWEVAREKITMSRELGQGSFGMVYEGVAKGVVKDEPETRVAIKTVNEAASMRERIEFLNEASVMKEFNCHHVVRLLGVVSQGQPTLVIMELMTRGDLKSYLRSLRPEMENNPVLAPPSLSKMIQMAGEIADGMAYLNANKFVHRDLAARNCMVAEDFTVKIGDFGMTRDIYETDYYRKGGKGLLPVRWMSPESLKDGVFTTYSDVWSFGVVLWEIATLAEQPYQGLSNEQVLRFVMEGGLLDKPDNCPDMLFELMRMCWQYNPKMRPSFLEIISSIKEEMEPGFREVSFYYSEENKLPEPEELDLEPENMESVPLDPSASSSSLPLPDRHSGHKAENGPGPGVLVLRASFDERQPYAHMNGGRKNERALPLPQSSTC

Take “CSKAPKLPAAYC (cysteine pairing not given here) [SEQ ID NO:8]”: in the series with IGF1-R, the “competition with the natural ligand for binding to IGF1-R” value was “competes with the natural ligand for binding to IGF1-R”. Besides, the “inhibition of proliferation/growth of tumor cell lines” value in series [1] was “inhibits the growth of certain cancer cell lines”.

Turning to `O=C1OC2(c3ccc(O)cc3Oc3cc(O)ccc32)c2ccccc21` [fluorescein], the “cellular uptake (fluorescence within the cells)” value in series [2] was “absence of uptake”.

Regarding “H-Gly-CCGCTTCCTTTC-Gly-Gly-Gly-Gly-D-Cys-D-Ser-D-Lys-D-Cys-NH2 [title PNA-peptide conjugate]”, the “uptake relative to the controls” value in the series with Jurkat cells is reported as “little preferential uptake”; in the series with Balb/c3T3 cells, “four-fold excess”. The “stability of the conjugate in serum” value in series [3] is given as “stability of the conjugate was confirmed”. In addition, the “uptake relative to control PNA or control PNA-peptide” value in the series with P6 cells was “five-fold more uptake”.

With “GCSKAPKLPAALC (cysteine pairing not given here) [SEQ ID NO:4]”, the “inhibition of proliferation/growth of tumor cell lines” value in series [1] is listed as “inhibits the proliferation of tumor cell lines dependent on IGFR1”.
